Measurements from patent US20230174472A1, “THERAPEUTIC USE OF PLEUROMUTILINS” (priority 2020, published 2023).
Where two headings read alike, the source gives them in different places.

Experiments:
[1] = test system: respiratory syncytial virus (RSV ALONG); experiment: inhibition of virus-induced CPE, RSV ALONG in HEp2 cells; details: Example 10; investigated strain of RSV A
[2] = test system: respiratory syncytial virus (RSV B18537); experiment: inhibition of virus-induced CPE, RSV B18537 in HEp2 cells; details: Example 10; investigated strain of RSV B
[3] = test system: human respiratory syncytial virus (strain RSVA2); experiment: inhibition of virus-induced CPE, RSVA2 in HEp2 cells (XTT)
[4] = test system: lipopolysaccharide (LPS)-induced ALI; details: cited from earlier work
[5] = test system: TNF-α, IL-6, IL-1β, GM-CSF, CXCL1, CXCL2, CCL2, MMP9 in lung homogenate; experiment: LPS induced lung neutrophilia model, marker concentrations in lung homogenate (Example 2)
[6] = test system: mice challenged with lipopolysaccharide (LPS); experiment: LPS induced lung neutrophilia model, BALF cell counts (Example 2); details: 10, 30 and 100 mg/kg SC; 4 h post LPS
[7] = test system: influenza A virus, porcine reproductive and respiratory syndrome virus (PRRSV) type 1 and 2; details: WO 2009/106839; compared to Tiamulin 0.1-10 μg/mL; cited from earlier work
[8] = cell viability of uninfected Huh7 cells; details: human, TC50, Example 13 (Zika assay)
[9] = test system: mice challenged with lipopolysaccharide (LPS); experiment: modified LPS induced lung neutrophilia model, BALF cell counts 24 h post LPS (Example 4)
HEp2 cells = experiment: cell viability of uninfected HEp2 cells (XTT); details: Example 8
[10] = test system: alpha coronavirus 229E (HCoV-229E); experiment: inhibition of virus-induced CPE, CoV229E in MRC-5 cells (XTT); format: cell-based
Protocol: The antiviral compound Remdesivir served as positive control.
Lefamulin (as acetate) was evaluated using different treatment conditions of 4 h, 1 h or 0 h incubation prior to virus addition and addition 1 h after infection For this particular set of experiments, coronavirus was diluted 1:200 in assay medium and added at 100 μL/well to achieve approximately 90% cell killing in the untreated virus control wells (MOI of 0.001).

MRC-5 cells = details: Example 6
in vitro [11] = details: human
in vitro [12] = details: human, TC50
[13] = test system: human respiratory syncytial virus (strain RSVA2); details: Example 8
polio virus = details: cited from earlier work
[14] = test system: influenza A virus strain (PR8); details: cited from earlier work
[15] = test system: herpes simplex type 1 (HSV-1) virus; details: cited from earlier work
[16] = test system: vesicular stomatitis virus (VSV); details: cited from earlier work
in vitro [17] = details: dog
[18] = test system: influenza A/Puerto Rico/8/34 (H1N1); format: in vivo, BALB/c mice
in vitro [19] = details: human; remark: listed apart in the source
[20] = test system: human rhinovirus strain HRV16 strain 11757; experiment: inhibition of virus-induced CPE, human rhinovirus in H1-HeLa cells; format: cell-based; details: Human rhinovirus sp., 4 hour pretreatment
Protocol: Cell viability determination as well as EC50 and TC50 calculations were performed as described in Examples 6 and 8.

[21] = lower doses of 10 and 30 mg/kg SC
[22] = same doses (10, 30, 100 mg/kg SC)

With Cc1ccc(CCCO)c(NCc2ccc3nc(NCCCN4CCOCC4)n(Cc4nc(C)ccc4O)c3c2)c1 [TMC353121] the EC50 [1] was 0.01 nM, the EC50 [2] was 0.01 nM and the EC50 ([3]; Example 8, HEp2 cells, 4 h incubation prior to virus, MOI 0.001, 6 days post-infection, Lefamulin as acetate, Tiamulin as fumarate) was 0.6 nM. The EC50 ([3]; Example 9, MOI 0.0004) was 0.04 nM, the EC50 ([3]; Example 9, MOI 0.0008) was 0.3 nM and the EC50 ([3]; Example 9, MOI 0.001) was 0.2 nM. For the same compound, the EC50 ([3]; Example 9, MOI 0.003) was 0.2 nM.

For C=C[C@]1(C)C[C@@H](OC(=O)CSC(C)(C)CNC(=O)[C@H](N)C(C)C)[C@]2(C)[C@H](C)CC[C@]3(CCC(=O)[C@H]32)[C@@H](C)[C@@H]1O [Valnemulin, reference compound], the “concentration of pro-inflammatory cytokines TNF-α, IL-6 and IL-1ß in bronchoalveolar lavage fluid” value ([4]; in vivo) is given as “attenuate”, the “pulmonary wet-to-dry (W/D) ratio in the lung” value ([4]; pre-administration) is given as “significantly reduced” and the “reduction of MMP9 levels in lung homogenate” value ([5]; 100 mg/kg SC) is given as 50%. For the same compound, the “GM-CSF in lung homogenate” value ([5]; all doses tested (10, 30, 100 mg/kg SC)) was “showed a reduction of GM-CSF levels, but was less active than Lefamulin”, the “LPS-induced CCL2 increase in the lung homogenate” value ([5]; all investigated doses (10, 30, 100 mg/kg SC), Valnemulin particularly at 10 and 30 mg/kg) was “less active” and the “effect on CXCL1 compared to Lefamulin” value [5, 21] was “less effect”. For the same compound, the “effect on CXCL2 compared to Lefamulin” value [5, 21] was “less effect”, the “IL-6 level in lung homogenate, compared with Lefamulin” value [5, 22] was “less active” and the “TNF-α level in lung homogenate, compared with Lefamulin” value [5, 22] was “less active”. For the same compound, the “lymphocyte cell counts in BALF” value [6] was “not significantly affected”, the “macrophage cell counts in BALF” value [6] was “not significantly affected” and the antiviral activity [7] was “did not exhibit antiviral activity”.

For CC(C)OC(=O)[C@H](C)N[P@](=O)(OC[C@H]1O[C@@H](n2ccc(=O)[nH]c2=O)[C@](C)(F)[C@@H]1O)Oc1ccccc1 [Sofosbuvir, reference compound], the CC50 at 6 days [8] was > 10 µM.

In the case of C=C(CC(=O)[O-])C(=O)[O-].[Na+].[Na+] [Sodium itaconate, reference compound], the BALF cell counts ([9]; 55 mg/kg single SC dose 30 min prior to IN LPS) is reported as “some reduction”.

In the case of C=C[C@]1(C)C[C@@H](OC(=O)CSCCN(CC)CC)[C@]2(C)[C@H](C)CC[C@]3(CCC(=O)[C@H]32)[C@@H](C)[C@@H]1O [Tiamulin, reference compound], the viability (HEp2 cells; 10 μM) is reported as 84%, the viability (HEp2 cells; 50 μM) is reported as 70.0% and the “reduction of viral CPE” value ([10]; 10 µM) is reported as 10.53%. For the same compound, the “reduction of viral CPE” value ([10]; 50 μM) was 81.68%, the EC50 ([10]; Example 6, MRC-5 cells, 4 h incubation prior to virus, MOI 0.001, 6 days post-infection, Lefamulin as acetate, Tiamulin as fumarate, read-out: EC50) was 24.4 µM and the “cytotoxic effect on the viability of the cell control” value (MRC-5 cells; 10 μM) was “no cytotoxic effect”. The “cytotoxic effect on the viability of the cell control” value (MRC-5 cells; 50 μM) was “cytotoxic effect”, the CC50 at 6 days (in vitro [11]) was 62.9 µM and the CC50 at 6 days (in vitro [12]) was 67.9 µM. The “reduction of viral CPE” value ([13]; 10 μM) was 16.76%, the “reduction of viral CPE” value ([13]; 50 μM) was 43.28% and the EC50 ([3]; human respiratory syncytial virus, HEp-2, Example 8, HEp2 cells, 4 h incubation prior to virus, MOI 0.001, 6 days post-infection, Lefamulin as acetate, Tiamulin as fumarate) was > 67900 nM.

In the case of C=C[C@]1(C)C[C@@H](OC(=O)CO)[C@]2(C)[C@H](C)CC[C@]3(CCC(=O)[C@H]32)[C@@H](C)[C@@H]1O [Pleuromutilin], the “antiviral activity for polio virus” value (polio virus) is listed as “did not show antiviral activity”, the “concentration with antiviral activity” value [14] is listed as 2 mg/mL and the “concentration that conferred a 50% protection of the cytopathic effect induced by HSV-1 (CPE50)” value [15] is listed as 15 µg/mL. The EC50 ([15]; read-out: concentration that conferred a 50% protection of the cytopathic effect induced by HSV-1 (CPE50)) was 40 µM and the “activity against vesicular stomatitis virus (VSV)” value [16] was “activity”.

With CCOC(=O)C1=C[C@@H](OC(CC)CC)[C@H](NC(C)=O)[C@@H](N)C1 [Oseltamivir, reference compound] the CC50 (in vitro [17]) was > 200 µM, the “lung viral titres (TCID50 on MDCK cells)” value ([18]; Lefamulin at both doses, Oseltamivir positive control, Day 3 and Day 6, vs vehicle treated control) was “reduced” and the bodyweight loss ([18]; positive control treatment) was “reduction”. For the same compound, the clinical scores ([18]; positive control treatment) was “reduction”.

With CCC(CC)COC(=O)[C@H](C)N[P@](=O)(OC[C@H]1O[C@@](C#N)(c2ccc3c(N)ncnn23)[C@H](O)[C@@H]1O)Oc1ccccc1 [Remdesivir, reference compound] the EC50 ([10]; Human coronavirus 229E, MRC5) was 0.11 µM and the CC50 (in vitro [11]) was > 5 µM.

With Lefamulin acetate the “cell count in BALF” value ([9]; 70 mg/kg single SC dose 30 min prior to IN LPS) was “reduction”.

For CCOC(=O)/C=C/[C@H](C[C@@H]1CCNC1=O)NC(=O)[C@@H](CC(=O)[C@@H](NC(=O)c1cc(C)on1)C(C)C)Cc1ccc(F)cc1 [Rupintrivir], the CC50 (in vitro [19]) was > 100 nM, the EC50 [20] was 4.9 nM and the EC50 ([20]; MOI 0.0005, Lefamulin as acetate) was 4.9 nM.
